# Test system: Streptococcus
# Assay: Antimicrobial activity against group A streptococci assessed as percent resistant isolates by Etest
# Format: functional
row,Compound,Activity [%]
1,CC[C@H]1OC(=O)[C@H](C)[C@@H](O[C@H]2C[C@@](C)(OC)[C@@H](O)[C@H](C)O2)[C@H](C)[C@@H](O[C@@H]2O[C@H](C)C[C@H](N(C)C)[C@H]2O)[C@](C)(O)C[C@@H](C)C(=O)[C@H](C)[C@@H](O)[C@]1(C)O [ERYTHROMYCIN],25
2,CN(C)[C@@H]1C(O)=C(C(N)=O)C(=O)[C@@]2(O)C(O)=C3C(=O)c4c(O)cccc4[C@@](C)(O)[C@H]3C[C@@H]12 [TETRACYCLINE],38
